Data reported in PMC4186430, “Modeling of age-dependent amyloid accumulation and γ-secretase inhibition of soluble and insoluble Aβ in a transgenic mouse model of amyloid deposition” (Pharmacology Research & Perspectives, 2013).

What was measured:
[1] = test system: soluble Aβ40 production; experiment: PKPD turnover model of MRK-560 inhibition of soluble Aβ40 production (models A, B, C); type: in vivo, Tg2576 transgenic mice; details: for IC50: Mus musculus
Experimental: In a second step, drug effect data were added to the AP analysis in order to develop an integrated PKPD model that incorporated both age-dependent AP and an age-dependent drug effect. To this end, the initially developed logistic model (eq. 3) was combined with a turnover model (Dayneka et al. [1993]; Jusko and Ko [1994]). This part of the analysis was only performed for soluble and insoluble Aβ40, as drug effect data for Aβ42 were not available from all studies. In this approach, the age-dependent AP causing an increase in soluble Aβ40 production (Kin,sol) was described following equations (4 and 5): [drawing 4] (4) [drawing 5] (5) in which Kin,sol and kout,sol corresponded to the production and loss of soluble Aβ40, respectively.
The inhibitory effect of MRK-560 on soluble Aβ40 was modeled using a turnover model (eq. 4), where the production of soluble Aβ40 was inhibited by the drug concentration. The model took into account the time delay between changes in plasma concentration of the drug and changes insoluble Aβ40 levels. Three types of drug effect models were evaluated: (A) absolute (eq. 6), (B) relative change from the baseline (eq. 7), and (C) modified relative change from the baseline (eq. 7). In model B the IC50(solAβ40) was constant, while in model C it was dependent on the soluble Aβ40 levels via a linear function as shown in equation (8).
Kin,sol corresponded to the age-dependent production of soluble Aβ40, kout,sol corresponded to the loss of soluble Aβ40, Imax was a maximum drug-induced soluble Aβ40 reduction (either absolute or relative reduction from the baseline for eqs. 6 and 7, respectively), CBr represented the brain concentrations, IC50 was a concentration which induced half of the maximum inhibition, while AP corresponded to the AP, described using equation (3). Additionally, parameter SL represented a slope of the linear relationship between absolute Aβ40 levels and IC50.
Changes in soluble Aβ40 were assumed to change the production of insoluble Aβ40. This effect was modeled using a turnover model and was described using equations (9–11): [drawing 9] (9) [drawing 10] (10) [drawing 11] (11) where Kin,insol was the production of insoluble Aβ40, which was dependent on the soluble Aβ40 levels, kout,insol was the loss of insoluble Aβ40, and SCALE was the scaling function between soluble and insoluble Aβ40 levels. Similar as in equation (3), α2 from equation (11) was the upper asymptote in the logistic function, ECi2 was a point of inflection and P2 was the slope parameter. A graphical representation of the PKPD model can be found in Figure 1.
All modeling analyses were performed in NONMEM (version 7.1.0, ICON Development Solutions, Ellicott City, MD [Schoemaker and Cohen [1996]]). The best models were chosen based on the analysis of their objective function, the precision of parameter estimates, and goodness-of-fit plots. The analysis of NONMEM output was performed using R software (R Development Core Team [2008]) and Xpose4 package (Jonsson and Karlsson [1998]). The 90% prediction intervals were calculated using the visual predictive check (VPC) as described by (Post et al. [2008]). In brief, 1000 simulations of the data were performed using final parameter estimates and 5th, 50th, and 95th percentiles were calculated.

[2] = test system: soluble Aβ40; set-up: method as in Townsend et al. [2010]; details: 12-month-old Tg2576 mice; 3-month MRK-560 treatment; ref Townsend et al. [2010]; cited from earlier work
[3] = Plasma unbound fraction; type: in vitro ADME; details: observed, read-out: fu,pl (plasma unbound fraction)
[4] = test system: total Aβ40; set-up: method as in Best et al. [2007]; details: 12-month-old Tg2576 mice; ref Best et al. [2007]; cited from earlier work
[5] = Fraction unbound in brain, rat brain slice uptake method; type: in vitro ADME, Sprague-Dawley rats; details: male, Sprague-Dawley, brain slices (coronal slices of striatal areas, 300 μm), observed, 1 μmol/L compound, 37°C, read-out: fu,br (brain unbound fraction)
Experimental: Determination of the fraction of compound unbound in the brain was determined in a rat brain slice uptake method (Fridén et al. [2009]; Borgegård et al. [2011]). In short, male Sprague-Dawley rats were decapitated under isoflurane anesthesia. The brains were immersed in an ice-cold oxygenated extracellular fluid (ECF) buffer. Coronal slices of the striatal areas (300 μm) were preincubated in a 10 mL ECF buffer for 5 min at 37°C followed by incubation with 1 μmol/L compound in an ECF buffer for 5 h at 37°C under 5% CO2 in oxygen. After incubation, brain slices were weighed and homogenized in nine volumes (w/v) of ECF buffer. The slice homogenates and ECF buffer were stored at −20°C prior to analysis. To 50 μL homogenized tissue, 150 μL ice-cold acetonitrile containing an internal standard was added in a precipitation plate. After mixing and centrifugation (4°C, 4000 rpm, 20 min), supernatant was transferred to the analysis plate and analyzed by LC/MS/MS.

[6] = model A (absolute drug effect), estimate (SE%)

In the case of `O=S(=O)(NC1CCC(c2cc(F)ccc2F)(S(=O)(=O)c2ccc(Cl)cc2)CC1)C(F)(F)F` (stereo not drawn) [MRK-560, N-[cis-4-[(4-chlorophenyl)-sulfonyl]-4-(2,5-difluorophenyl)cyclohexyl]-1,1,1-trifluoromethanesulfonamide], the IC50 [1, 6] is reported as 90 nM, the IC50 ([1]; model B (relative drug effect, constant IC50), estimate (SE%)) is reported as 190 nM and the IC50 ([1]; model C, 5-month-old Tg2576 mice, brain concentration) is reported as 110 nM. The IC50 ([1]; model C, 25-month-old Tg2576 mice, brain concentration) was 12000 nM, the Imax ([1]; final model (model C)) was 86% and the Imax [1, 6] was 59 (4) pg/mg. For the same compound, the Imax ([1]; model B (relative drug effect), estimate (SE%)) was 88 (10) %, the “decrease in soluble Aβ40 levels” value [2] was 63% and the fraction unbound [3] was 0.004. For the same compound, the “decrease in total Aβ40 levels” value [4] was 43% and the fraction unbound at 5 h, 1 μmol/L [5] was 0.0067.
